Assay results taken from patent US12091411B2, “IRAK degraders and uses thereof” (Kymera Therapeutics, Inc., priority 2022, dated 2024).
Read-outs that look alike come from different tables or passages of the source.

Molecular target: T1, IRAK4 (Homo sapiens, UniProt Q9NWZ3)
T1 construct: Degradation of IRAK4 in OCI-LY10 was quantitatively measured using Meso Scale Discovery technology; endogenous in cells; host or cells: OCI-LY10
T1 sequence (Q9NWZ3 1-460): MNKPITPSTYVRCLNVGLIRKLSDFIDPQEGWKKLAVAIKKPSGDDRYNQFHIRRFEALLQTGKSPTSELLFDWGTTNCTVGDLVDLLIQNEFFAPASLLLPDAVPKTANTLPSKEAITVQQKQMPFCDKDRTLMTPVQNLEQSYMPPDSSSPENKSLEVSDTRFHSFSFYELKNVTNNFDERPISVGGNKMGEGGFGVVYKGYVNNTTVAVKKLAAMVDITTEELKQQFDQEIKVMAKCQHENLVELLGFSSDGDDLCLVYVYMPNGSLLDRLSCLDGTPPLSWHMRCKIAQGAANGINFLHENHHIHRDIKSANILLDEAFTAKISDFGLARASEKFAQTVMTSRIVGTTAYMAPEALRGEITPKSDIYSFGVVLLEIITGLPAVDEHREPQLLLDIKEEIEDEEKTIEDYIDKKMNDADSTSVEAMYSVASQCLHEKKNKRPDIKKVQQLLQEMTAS
Assay: IRAK4 MSD Degradation in OCI-LY10
Assay type: cell-based
Details: OCI-LY10 cells, MSD
Method in brief: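 DC50, from a three-parameter logistic fit and reported as letter bins A (<0.01 μM), B, C, D (>0.2 μM or not tested), reflects IRAK4 loss measured by MSD electrochemiluminescence in OCI-LY10 lysates. Treatment: 8 doses, 1:3 steps, top 1 to 10 μM, 4 to 24 h, 37 °C.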

[1] = 4 hrs incubation, read-out: IRAK4 degradation in OCI-LY10 at 4 hrs: DC50
[2] = 24 hrs incubation, read-out: IRAK4 degradation in OCI-LY10 at 24 hrs: DC50

Structure (SMILES)	DC50 [1] [nM]	DC50 [2] [nM]
Cn1c(=O)n(C2CCC(=O)NC2=O)c2cccc(OC3CC4(CCN(Cc5ccc(-n6cc(NC(=O)c7cnn8ccc(N9C[C@H]%10C[C@@H]9CO%10)nc78)c(C(F)F)n6)cc5)CC4)C3)c21 (some centres unmarked) [I-401]	> 200	> 200
Cn1c(=O)n(C2CCC(=O)NC2=O)c2cccc(CN3CC4(CCN(Cc5ccc(-n6cc(NC(=O)c7cnn8ccc(N9C[C@H]%10C[C@@H]9CO%10)nc78)c(C(F)F)n6)cc5)CC4)C3)c21 (some centres unmarked) [I-402]	> 200	> 200
Cn1c(=O)n(C2CCC(=O)NC2=O)c2cccc(N3CCN(C[C@H]4CC[C@H](n5cc(NC(=O)c6cnn7cccnc67)c(C(F)F)n5)CC4)CC3)c21 (some centres unmarked) [I-403]	> 200	> 200
Cn1c(=O)n(C2CCC(=O)NC2=O)c2cccc(N3CCC4C(C3)OCCN4C[C@H]3CC[C@H](n4cc(NC(=O)c5cnn6cccnc56)c(C(F)F)n4)CC3)c21 (some centres unmarked) [I-404]	> 200	> 200
C[C@H]1CN(c2ccn3ncc(C(=O)Nc4cn([C@H]5CC[C@H](CN6CCN(CC#Cc7cccc8c7n(C)c(=O)n8C7CCC(=O)NC7=O)CC6)CC5)nc4C(F)F)c3n2)CCO1 (some centres unmarked) [I-405]	> 200	> 200
C[C@@H]1CN(c2ccn3ncc(C(=O)Nc4cn([C@H]5CC[C@H](CN6CCN(CC#Cc7cccc8c7n(C)c(=O)n8C7CCC(=O)NC7=O)CC6)CC5)nc4C(F)F)c3n2)CCO1 (some centres unmarked) [I-406]	> 200	< 10
Cn1c(=O)n(C2CCC(=O)NC2=O)c2cccc(C#CCN3CCN(C[C@H]4CC[C@H](n5cc(NC(=O)c6cnn7ccc(N8CCOC(C(F)F)C8)nc67)c(C(F)F)n5)CC4)CC3)c21 (some centres unmarked) [I-407]	> 200	> 200
Cn1c(=O)n(C2CCC(=O)NC2=O)c2cccc(C#CCN3CCN(C[C@H]4CC[C@H](n5cc(NC(=O)c6cnn7ccc(N8CCN(C(F)(F)F)CC8)nc67)c(C(F)F)n5)CC4)CC3)c21 (some centres unmarked) [I-408]	> 200	> 200
Cn1c(=O)n(C2CCC(=O)NC2=O)c2cccc(C#CCN3CCN(C[C@H]4CC[C@H](n5cc(NC(=O)c6cnn7ccc(N8CCN(CC(F)F)CC8)nc67)c(C(F)F)n5)CC4)CC3)c21 (some centres unmarked) [I-409]	> 200	> 200
Cn1c(=O)n(C2CCC(=O)NC2=O)c2cccc(C#CCN3CCN(C[C@H]4CC[C@H](n5cc(NC(=O)c6cnn7ccc(N8CCN(CC(F)(F)F)CC8)nc67)c(C(F)F)n5)CC4)CC3)c21 (some centres unmarked) [I-410]	> 200	> 200
CN1CCN(c2ccn3ncc(C(=O)Nc4cn([C@H]5CC[C@H](CN6CCN(CC#Cc7cccc8c7n(C)c(=O)n8C7CCC(=O)NC7=O)CC6)CC5)nc4C(F)F)c3n2)CC1C(F)F (some centres unmarked) [I-411]	> 200	> 200
CN1CCN(c2ccn3ncc(C(=O)Nc4cn([C@H]5CC[C@H](CN6CCN(CC#Cc7cccc8c7n(C)c(=O)n8C7CCC(=O)NC7=O)CC6)CC5)nc4C(F)F)c3n2)CC1C(F)(F)F (some centres unmarked) [I-412]	> 200	> 200
CN1CCC(c2ccn3ncc(C(=O)Nc4cn([C@H]5CC[C@H](CN6CCN(CC#Cc7cccc8c7n(C)c(=O)n8C7CCC(=O)NC7=O)CC6)CC5)nc4C(F)F)c3n2)C(F)(F)C1 (some centres unmarked) [I-413]	> 200	> 200
Cn1c(=O)n(C2CCC(=O)NC2=O)c2cccc(-c3cc(CN4CCn5cc(-n6cc(NC(=O)c7cnn8cccnc78)c(C(F)F)n6)cc5C4)ncn3)c21 (centres unmarked) [I-415]	> 200	> 200
Cn1c(=O)n(C2CCC(=O)NC2=O)c2cccc(N3CCC(N4CCn5cc(-n6cc(NC(=O)c7cnn8cccnc78)c(C(F)F)n6)cc5C4)CC3)c21 (centres unmarked) [I-416]	> 200	> 200
Cn1c(=O)n(C2CCC(=O)NC2=O)c2cccc(-c3ccc(N4CCc5cc(-n6cc(NC(=O)c7cnn8cccnc78)c(C(F)F)n6)ccc5C4)nc3)c21 (centres unmarked) [I-417]	> 200	> 200
Cn1c(=O)n(C2CCC(=O)NC2=O)c2cccc(C#CCOC3CCN([C@H]4CC[C@@H](n5cc(NC(=O)c6cnn7ccc(N8C[C@H]9C[C@@H]8CO9)nc67)c(C(F)F)n5)CC4)CC3)c21 (some centres unmarked) [I-420]	> 200	> 200
Cn1c(=O)n(C2CCC(=O)NC2=O)c2cccc(N3CCC(N4CCN([C@H]5CC[C@@H](n6cc(NC(=O)c7cnn8ccc(N9C[C@H]%10C[C@@H]9CO%10)nc78)c(C(F)F)n6)CC5)CC4)CC3)c21 (some centres unmarked) [I-422]	> 200	> 200

Further lines, results first:

DC50 [1] [nM]	DC50 [2] [nM]	Structure (SMILES)
> 200	> 200	Cn1c(=O)n(C2CCC(=O)NC2=O)c2cccc(C[C@@H]3CN(Cc4ccc(-n5cc(NC(=O)c6cnn7cccnc67)c(C(F)F)n5)cc4)CCO3)c21 (some centres unmarked) [I-392]
> 200	> 200	Cn1c(=O)n(C2CCC(=O)NC2=O)c2cccc(C[C@@H]3CN(C[C@H]4CC[C@H](n5cc(NC(=O)c6cnn7ccc(N8C[C@H]9C[C@@H]8CO9)nc67)c(C(F)F)n5)CC4)CCO3)c21 (some centres unmarked) [I-393]
> 200	> 200	Cn1c(=O)n(C2CCC(=O)NC2=O)c2cccc(C[C@@H]3CN(Cc4ccc(-n5cc(NC(=O)c6cnn7ccc(N8C[C@H]9C[C@@H]8CO9)nc67)c(C(F)F)n5)cc4)CCO3)c21 (some centres unmarked) [I-394]
> 200	> 200	Cn1c(=O)n(C2CCC(=O)NC2=O)c2cccc(CC[C@@H]3CN(C[C@H]4CC[C@H](n5cc(NC(=O)c6cnn7ccc(N8C[C@H]9C[C@@H]8CO9)nc67)c(C(F)F)n5)CC4)CCO3)c21 (some centres unmarked) [I-395]
> 200	> 200	Cn1c(=O)n(C2CCC(=O)NC2=O)c2cccc(CC[C@@H]3CN(Cc4ccc(-n5cc(NC(=O)c6cnn7ccc(N8C[C@H]9C[C@@H]8CO9)nc67)c(C(F)F)n5)cc4)CCO3)c21 (some centres unmarked) [I-396]
> 200	> 200	Cn1c(=O)n(C2CCC(=O)NC2=O)c2cccc(CC[C@@H]3CN(C[C@H]4CC[C@H](n5cc(NC(=O)c6cnn7cccnc67)c(C(F)F)n5)CC4)CCO3)c21 (some centres unmarked) [I-397]
> 200	> 200	Cn1c(=O)n(C2CCC(=O)NC2=O)c2cccc(CC[C@@H]3CN(Cc4ccc(-n5cc(NC(=O)c6cnn7cccnc67)c(C(F)F)n5)cc4)CCO3)c21 (some centres unmarked) [I-398]
< 10	> 200	Cn1c(=O)n(C2CCC(=O)NC2=O)c2cccc(N3CCC4(CC3)CN(Cc3ccc(-n5cc(NC(=O)c6cnn7cccnc67)c(C(F)F)n5)cc3)C4)c21 (centres unmarked) [I-399]
10 to 100	> 200	Cn1c(=O)n(C2CCC(=O)NC2=O)c2cccc(N3CC4(CCN(Cc5ccc(-n6cc(NC(=O)c7cnn8ccc(N9C[C@H]%10C[C@@H]9CO%10)nc78)c(C(F)F)n6)cc5)CC4)C3)c21 (some centres unmarked) [I-400]
100 to 200	> 200	Cn1c(=O)n(C2CCC(=O)NC2=O)c2cccc(C#CCN3CCN(C[C@H]4CC[C@H](n5cc(NC(=O)c6cnn7ccc(N8CC(F)(F)C8)nc67)c(C(F)F)n5)CC4)CC3)c21 (some centres unmarked) [I-414]
10 to 100	> 200	Cn1c(=O)n(C2CCC(=O)NC2=O)c2cccc(C#CCN3CCN(C[C@H]4CC[C@H](n5cc(NC(=O)c6cnn7ccc(N8CC[C@]9(CCOC9)C8)nc67)c(C(F)F)n5)CC4)CC3)c21 (some centres unmarked) [I-418]
10 to 100	> 200	Cn1c(=O)n(C2CCC(=O)NC2=O)c2cccc(C#CCN3CCN(C[C@H]4CC[C@H](n5cc(NC(=O)c6cnn7ccc(N8CC[C@@]9(CCOC9)C8)nc67)c(C(F)F)n5)CC4)CC3)c21 (some centres unmarked) [I-419]
10 to 100	> 200	Cn1c(=O)n(C2CCC(=O)NC2=O)c2cccc(C#CCN3CCN([C@H]4CC[C@@H](n5cc(NC(=O)c6cnn7ccc(N8C[C@H]9C[C@@H]8CO9)nc67)c(C(F)F)n5)CC4)CC3)c21 (some centres unmarked) [I-421]
